{"source": "BindingDB's records for patent US11912682", "about": "(Monte Rosa Therapeutics, 2024)", "molecular_target": "Protein cereblon (Homo sapiens, UniProt Q96SW2)", "sequence (Q96SW2 whole entry)": "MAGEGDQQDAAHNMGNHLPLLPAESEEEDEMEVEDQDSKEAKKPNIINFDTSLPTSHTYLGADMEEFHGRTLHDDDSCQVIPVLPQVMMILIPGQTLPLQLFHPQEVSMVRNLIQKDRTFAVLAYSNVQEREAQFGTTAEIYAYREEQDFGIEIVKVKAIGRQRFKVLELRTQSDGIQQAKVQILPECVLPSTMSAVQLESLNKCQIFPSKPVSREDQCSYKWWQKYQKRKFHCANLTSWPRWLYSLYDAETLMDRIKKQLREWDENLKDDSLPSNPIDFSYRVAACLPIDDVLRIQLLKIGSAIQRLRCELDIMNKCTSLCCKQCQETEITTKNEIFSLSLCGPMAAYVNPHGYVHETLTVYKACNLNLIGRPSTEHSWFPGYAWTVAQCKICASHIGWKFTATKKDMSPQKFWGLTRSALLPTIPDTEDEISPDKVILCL", "assay": "Compound Activity by Fluorescent Polarization Assay", "experimental": "Compound activity was monitored in a fluorescence polarization (FP) homogeneous assay using 1-[5-({2-[2-(2-{[2-(2,6-dioxopiperidin-3-yl)-1,3-dioxo-2,3-dihydro-1H-isoindol-4-yl]oxy}acetamido)ethoxy]ethyl}carbamoyl)pentyl]-3,3-dimethyl-2-[(1E,3E)-5-[(2E)-1,3,3-trimethyl-5-sulfo-2,3-dihydro-1H-indol-2-ylidene]penta-1,3-dien-1-yl]-3H-indol-1-ium-5-sulfonate as a fluorescent probe. Unless otherwise stated, all reagents were purchased from Sigma Aldrich. Enzymatic reactions were conducted in Perkin-Elmer Black 384 well ProxiPlate Plus (catalogue no. 6008269) in 10 μL total volume. Full length wild-type cereblon CRBN (80.0 nM, 10 μL) was incubated in assay buffer containing 20 mM HEPES (pH 8.0), […], 0.5 mM TCEP and 0.05% Tween 20 in the presence or absence of compound (300 nL). Inhibitors were stored as 10 mM DMSO stocks in an inert environment (low humidity, dark, low oxygen, room temperature) using the Storage Pod System. Compounds and DMSO were dispensed using the Echo ESXX (Labcyte Inc. USA) to give concentrations from 300 to 0.937 or 3000 to 9.3 nM in a 12 data point curve. […] FP was measured after a period of 12 hours using a Pherastar plate reader (BMG Labtech, Germany) exciting at 590 nm and measuring the amount of parallel and perpendicular light at 675 nm. […]"}
{"compound": "O=C1CCC(N2Cc3ccc(COC(=O)Nc4cc(Cl)cc(OC(F)(F)F)c4)cc3C2=O)C(=O)N1", "note": "(stereo unspecified) [US11912682, Compound 11]", "values": [{"measurement": "IC50", "value": "> 1700", "unit": "nM"}]}
